Measured values published in patent US20090285773A1, “Hepatitis C Virus Inhibitors” (Bristol-Myers Squibb Company, priority 2008, published 2009).

Key:
NS3/4A protease complex = target: T1, NS3/4A protease complex (UniProt P27958); assay: HCV NS3/4A protease complex enzyme assay (strain not stated); type: biochemical; settings: Table 2; strain and unit inferred
T1 construct: fused on or other part: three-lysine solubilising tail at the C-terminus of NS4A; probably a His tag from pET21b (Ni-NTA purification)
Description: The purpose of this in vitro assay was to measure the inhibition of HCV NS3 protease complexes, derived from the BMS strain, H77 strain or J4L6S strain, as described above, by compounds of the present disclosure. This assay provides an indication of how effective compounds of the present disclosure would be in inhibiting HCV NS3 proteolytic activity.
In order to monitor HCV NS3/4A protease activity, an NS3/4A peptide substrate was used. The substrate was RET S1 (Resonance Energy Transfer Depsipeptide Substrate; AnaSpec, Inc. cat #22991)(FRET peptide), described by Taliani et al. in Anal. Biochem. 240(2):60-67 (1996). The sequence of this peptide is loosely based on the NS4A/NS4B natural cleavage site for the HCV NS3 protease except there is an ester linkage rather than an amide bond at the cleavage site. The peptide also contains a fluorescence donor, EDANS, near one end of the peptide and an acceptor, DABCYL, near the other end. The fluorescence of the peptide is quenched by […] resonance energy transfer (RET) between the donor and the acceptor, but as the NS3 protease cleaves the peptide the products are released from RET quenching and the fluorescence of the donor becomes apparent.
The peptide substrate was incubated with one of the three recombinant NS3/4A protease complexes, in the absence or presence of a compound of the present disclosure. The inhibitory effects of a compound were determined by monitoring the formation of fluorescent reaction product in real time using a Cytofluor Series 4000.
Assay buffer: 50 mM HEPES, pH 7.5; 0.15 M NaCl; 0.1% Triton; 15% Glycerol; 10 mM βME. Substrate: 2 μM final concentration (from a 2 mM stock solution in DMSO stored at −20° C.). HCV NS3/4A protease type 1a (1b), 2-3 nM final concentration (from a 5 μM stock solution in 25 mM HEPES, pH 7.5, 20% glycerol, 300 mM NaCl, 0.2% Triton-X100, 10 mM βME). For compounds with potencies approaching the assay limit, the assay was made more sensitive by adding 50 μg/ml Bovine Serum Albumin (Sigma) to the assay buffer and reducing the end protease concentration to 300 pM.
The assay was performed in a 96-well polystyrene black plate from Falcon. Each well contained 25 μl NS3/4A protease complex in assay buffer, 50 μl of a compound of the present disclosure in 10% DMSO/assay buffer and 25 μl substrate in assay buffer. A control (no compound) was also prepared on the same assay plate. The enzyme complex was mixed with compound or control solution for 1 min before initiating the enzymatic reaction by the addition of substrate. The assay plate was read immediately using the Cytofluor Series 4000 (Perspective Biosystems). The instrument was set to read an emission of […] at 25° C. Reactions were generally followed for approximately 15 min.
The percent inhibition was calculated with the following equation: […]
where δF is the change in fluorescence over the linear range of the curve. A non-linear curve fit was applied to the inhibition-concentration data, and the 50% effective concentration (IC50) was calculated by the use of Excel XLfit software using the equation, y=A+((B−A)/(1+((C/x)̂D))).

[1] = system: HCV replicon (strain 1b) in HUH-7 cells; assay: HCV replicon FRET assay; type: cell-based; settings: Hepatitis C virus, Huh-7; Table 2; replicon assay variant and unit inferred; read-out: EC50
Description: An HCV replicon whole cell system was established as described by Lohmann V, Korner F, Koch J, Herian U, Theilmann L, Bartenschlager R., Science 285(5424): 110-3 (1999). This system enabled us to evaluate the effects of our HCV Protease compounds on HCV RNA replication. Briefly, using the HCV strain 1b sequence described in the Lohmann paper (Assession number:AJ238799), an HCV cDNA was synthesized by Operon Technologies, Inc. (Alameda, Calif.), and the full-length replicon was then assembled in plasmid pGem9zf(+) (Promega, Madison, Wis.) using standard molecular biology techniques. The replicon consists of (i) the HCV 5′ UTR fused to the first 12 amino acids of the capsid protein, (ii) the neomycin phosphotransferase gene (neo), (iii) the IRES from encephalomyocarditis virus (EMCV), and (iv) HCV NS3 to NS5B genes and the HCV 3′ UTR. Plasmid DNAs were linearized with ScaI and RNA transcripts were synthesized in vitro using the T7 MegaScript transcription kit (Ambion, Austin, Tex.) according to manufacturer's directions. In vitro transcripts of the cDNA were transfected into the human hepatoma cell line, HUH-7. […] Resulting cell lines were characterized for positive and negative strand RNA production and protein production over time.
The HCV replicon FRET assay was developed to monitor the inhibitory effects of compounds described in the disclosure on HCV viral replication. HUH-7 cells, constitutively expressing the HCV replicon, were grown in Dulbecco's Modified Eagle Media (DMEM) (Gibco-BRL) containing 10% Fetal calf serum (FCS) (Sigma) and 1 mg/ml G418 (Gibco-BRL). Cells were seeded the night before (1.5×10^4 cells/well) in 96-well tissue-culture sterile plates. Compound and no compound controls were prepared in DMEM containing 4% FCS, 1:100 Penicillin/Streptomysin (Gibco-BRL), 1:100 L-glutamine and 5% DMSO in the dilution plate (0.5% DMSO final concentration in the assay). Compound/DMSO mixes were added to the cells and incubated for 4 days at 37° C. After 4 days, cells were first assessed for cytotoxicity using alamar Blue (Trek Diagnotstic Systems) for a CC50 reading. The toxicity of compound (CC50) was determined by adding 1/10th volume of alamar Blue to the media incubating the cells. After 4 h, the fluorescence signal from each well was read, with an excitation wavelength at 530 nm and an emission wavelength of 580 nm, using the Cytofluor Series 4000 (Perspective Biosystems). Plates were then rinsed thoroughly with Phosphate-Buffered Saline (PBS) (3 times 150 μl).

T1 sequence (P27958 1027-1657, one chain of several): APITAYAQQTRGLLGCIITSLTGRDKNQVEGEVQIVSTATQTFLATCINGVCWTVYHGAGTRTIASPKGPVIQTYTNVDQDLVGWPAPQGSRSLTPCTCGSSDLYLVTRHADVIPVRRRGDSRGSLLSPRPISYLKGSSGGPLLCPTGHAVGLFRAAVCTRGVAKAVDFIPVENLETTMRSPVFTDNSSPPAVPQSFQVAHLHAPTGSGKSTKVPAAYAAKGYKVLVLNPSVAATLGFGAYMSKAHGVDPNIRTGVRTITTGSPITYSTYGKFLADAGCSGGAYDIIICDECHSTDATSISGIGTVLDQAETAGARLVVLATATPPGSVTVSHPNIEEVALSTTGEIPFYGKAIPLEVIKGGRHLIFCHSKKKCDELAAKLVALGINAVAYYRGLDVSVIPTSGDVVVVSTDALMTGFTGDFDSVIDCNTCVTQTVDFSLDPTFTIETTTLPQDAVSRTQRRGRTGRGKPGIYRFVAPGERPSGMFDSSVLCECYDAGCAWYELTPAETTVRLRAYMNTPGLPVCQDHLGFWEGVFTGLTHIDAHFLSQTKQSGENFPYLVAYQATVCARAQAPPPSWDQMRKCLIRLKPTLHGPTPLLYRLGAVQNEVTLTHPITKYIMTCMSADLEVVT

| Compound | IC50 (NS3/4A protease complex) [nM] | EC50 [1] [nM] |
| --- | --- | --- |
| COc1ccc(N[C@H]2CCCCC/C=C\[C@@H]3C[C@@]3(C(=O)NS(=O)(=O)C3CC3)NC(=O)[C@@H]3C[C@@H](Oc4ncc(OC)c5ccc(Cl)cc45)CN3C2=O)cn1 (single isomer, unassigned) [Compound 2] | 6 | 9.1 |
| COc1ccc2c(O[C@@H]3C[C@H]4C(=O)N[C@]5(C(=O)NS(=O)(=O)C6CC6)C[C@H]5/C=C\CCCCC[C@H](Nc5nc(-c6ccc(OC(F)(F)F)cc6)cs5)C(=O)N4C3)nccc2c1 [Compound 3] | 5 | 6.2 |
| COc1ccc2c(O[C@@H]3C[C@H]4C(=O)N[C@]5(C(=O)NS(=O)(=O)C6CC6)C[C@H]5/C=C\CCCCC[C@H](Nc5nc(-c6ccc(F)cc6F)cs5)C(=O)N4C3)nccc2c1 [Compound 4] | 11 | 13.8 |
| COc1ccc2c(O[C@@H]3C[C@H]4C(=O)N[C@]5(C(=O)NS(=O)(=O)C6CC6)C[C@H]5/C=C\CCCCC[C@H](Nc5nc(-c6ccccc6)cs5)C(=O)N4C3)nccc2c1 [Compound 5] | 3 | 8.1 |
| COc1cnc(O[C@@H]2C[C@H]3C(=O)N[C@]4(C(=O)NS(=O)(=O)C5CC5)C[C@H]4/C=C\CCCCC[C@H](Nc4nc(-c5ccc(OC(F)(F)F)cc5)cs4)C(=O)N3C2)c2cc(Cl)ccc12 [Compound 6] | 2 | 8.7 |
